In ChEMBL document CHEMBL3763059, “Lanostane-type triterpenes from the fungal endophyte Scleroderma UFSMSc1 (Persoon) Fries” (2016):
Values after ≈ are worked out from the molar mass of the structure shown.

Key:
Assay type in all cases: functional
[1] = tested on: Candida albicans; assay: Antifungal activity against Candida albicans ATCC 10231 after 48 hrs by microdilution method; conditions: for MIC: Candida albicans, ATCC 10231, 48 h
[2] = tested on: Pichia kudriavzevii; assay: Antifungal activity against Candida krusei ATCC 6258 after 48 hrs by micro dilution method; conditions: for MIC: Pichia kudriavzevii, ATCC 6258, 48 h
[3] = tested on: Candida tropicalis; assay: Antifungal activity against Candida tropicalis ATCC 18803 after 48 hrs by micro dilution method; conditions: for MIC: Candida tropicalis, ATCC 18803, 48 h
[4] = tested on: Candida parapsilosis; assay: Antifungal activity against Candida parapsilosis ATCC 22018 after 48 hrs by micro dilution method; conditions: for MIC: Lodderomyces parapsilosis, ATCC 22018, 48 h

MIC [1] [µg/mL] | MIC [2] [µg/mL] | MIC [3] [µg/mL] | MIC [4] [µg/mL] | Compound | MLC [1] [µg/mL] | MLC [2] [µg/mL] | MLC [3] [µg/mL] | MLC [4] [µg/mL]
50 (≈ 118 µM) | 12.5 (≈ 29.4 µM) | 50 (≈ 118 µM) | 25 (≈ 58.9 µM) | C=C(C)/C=C/C[C@@H](C)[C@H]1CC[C@@]2(C)C3=C(CC[C@]12C)[C@@]1(C)CC[C@H](O)C(C)(C)[C@@H]1CC3 | >100 | 100 (≈ 235 µM) | 100 (≈ 235 µM) | 50 (≈ 118 µM)
25 (≈ 54.7 µM) | 6.25 (≈ 13.7 µM) | 25 (≈ 54.7 µM) | 12.5 (≈ 27.4 µM) | COC(C)(C)/C=C/C[C@@H](C)[C@H]1CC[C@@]2(C)C3=C(CC[C@]12C)[C@@]1(C)CC[C@H](O)C(C)(C)[C@@H]1CC3 (relative stereo) | 25 (≈ 54.7 µM) | 12.5 (≈ 27.4 µM) | 25 (≈ 54.7 µM) | 25 (≈ 54.7 µM)
50 (≈ 113 µM) | 12.5 (≈ 28.2 µM) | 50 (≈ 113 µM) | 50 (≈ 113 µM) | C[C@H](C/C=C/C(C)(C)O)[C@H]1CC[C@@]2(C)C3=C(CC[C@]12C)[C@@]1(C)CC[C@H](O)C(C)(C)[C@@H]1CC3 (relative stereo) | >100 | 100 (≈ 226 µM) | >100 | 100 (≈ 226 µM)
